Experimental data as given in PubChem BioAssay (NCI).
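Tested at 5 concentrations; 48 h exposure; 96-well plates; endpoints linearly interpolated, else capped at highest concentration. The concentration for 50% growth inhibition is given as GI50. TGI marks complete inhibition of growth.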

Assays:
Test in all cases: NCI tumour cell line growth inhibition, 48 h
[1] = system: DMS 114 small cell lung
[2] = system: SNB-78 CNS
[3] = system: DMS 273 small cell lung
[4] = system: KM20L2 colon
[5] = system: LXFL 529 NSCLC
[6] = system: M19-MEL melanoma
[7] = system: XF 498 CNS
[8] = system: RXF-631 renal
[9] = system: P388 leukemia
[10] = system: SN12K1 renal
[11] = system: HOP-18 NSCLC

With `C1=C(c2ccccc2)SC(N2CCCCC2)S1` (stereo unspecified) as the compound, how does the TGI [1] read?
Its TGI is greater than 100 µM.

And the TGI [2]?
Its TGI is greater than 100 µM.

And the TGI [3]?
The TGI was greater than 100 µM.

What about the TGI [4] of the same compound?
The TGI was greater than 100 µM.

What about the TGI [5] of the same compound?
Its TGI is greater than 100 µM.

And the TGI [6]?
The TGI was greater than 100 µM.

What about the TGI [7] of the same compound?
Its TGI is greater than 100 µM.

What does the source list for `Cc1ccc(C)c(NC(=O)C(=O)C(C(=O)c2ccc3ccccc3c2)C2OC(=O)c3ccccc32)c1` (stereo unspecified)?
TGI [1]: 26.3 µM; TGI [2]: > 100 µM; TGI [3]: > 100 µM; TGI [8]: 65.6 µM; TGI [4]: 53.3 µM; TGI [5]: 25.1 µM; TGI [6]: 30.5 µM; TGI [7]: 44 µM

For `N=C1C(=N)c2ccccc2-c2ccccc21.[Cl-].[Ru+2].c1ccc(-c2ccccn2)nc1.c1ccc(-c2ccccn2)nc1`, which GI50 [2] is on record?
Its GI50 is greater than 100 µM.

And the TGI [2]?
The TGI was greater than 100 µM.

What about the GI50 [4] of the same compound?
Its GI50 is greater than 100 µM.

What about the TGI [4] of the same compound?
The TGI was greater than 100 µM.

And the GI50 [5]?
Its GI50 is greater than 100 µM.

What about the TGI [5] of the same compound?
The TGI was greater than 100 µM.

And the GI50 [6]?
The GI50 was greater than 100 µM.

And the TGI [6]?
Its TGI is greater than 100 µM.

How did the TGI [9] turn out when `CCCCCOc1ccc(C=Nc2ccc(CCc3ccc(N=Cc4ccc(OCCCCC)cc4)cc3)cc2)cc1` was run?
The TGI was greater than 100 µM.

And the TGI [1]?
The TGI was greater than 100 µM.

And the TGI [2]?
Its TGI is greater than 100 µM.

What about the TGI [3] of the same compound?
The TGI was greater than 100 µM.

What about the TGI [10] of the same compound?
Its TGI is greater than 100 µM.

What about the TGI [4] of the same compound?
Its TGI is greater than 100 µM.

What about the TGI [6] of the same compound?
The TGI was greater than 100 µM.

And the TGI [7]?
Its TGI is greater than 100 µM.

What about the TGI [11] of the same compound?
The TGI was greater than 100 µM.

Which results are given for `c1ccc(-c2csc3c4ccccc4c4ccccc4[n+]23)cc1`?
TGI [1]: 4.89 µM; TGI [2]: 11.1 µM; TGI [3]: 4.58 µM; TGI [4]: 20.6 µM; TGI [5]: 16.6 µM; TGI [6]: 4.22 µM; TGI [7]: 5.46 µM; TGI [11]: 49.6 µM

Which TGI [1] does the source give for `CCOC(=O)C(C#N)(Cc1c[nH]c2ccccc12)NC(C)=O` (stereo unspecified) here?
The TGI was greater than 100 µM.

And the TGI [3]?
Its TGI is greater than 100 µM.

What about the TGI [4] of the same compound?
The TGI was greater than 100 µM.

And the TGI [5]?
Its TGI is greater than 100 µM.

And the TGI [6]?
Its TGI is greater than 100 µM.

For `Cc1cc([NH-])c([NH-])cc1C.[Cl][Pt+2][Cl]`, which GI50 [9] is on record?
Its GI50 is 2.42 µM.

And the TGI [9]?
The TGI was 10.2 µM.

What about the GI50 [1] of the same compound?
Its GI50 is 8.09 µM.

And the TGI [1]?
Its TGI is 32.3 µM.

And the GI50 [2]?
Its GI50 is 26.5 µM.

And the TGI [2]?
The TGI was greater than 96 µM.

And the GI50 [10]?
Its GI50 is 13.5 µM.

What about the TGI [10] of the same compound?
Its TGI is 32 µM.

And the GI50 [4]?
Its GI50 is 20.2 µM.

And the TGI [4]?
The TGI was greater than 81.9 µM.

And the GI50 [6]?
The GI50 was 8.79 µM.

And the TGI [6]?
The TGI was 31.2 µM.

What about the GI50 [7] of the same compound?
The GI50 was 19.7 µM.

And the TGI [7]?
The TGI was 46.4 µM.

And the GI50 [11]?
The GI50 was greater than 82 µM.

What about the TGI [11] of the same compound?
Its TGI is greater than 100 µM.
